The values that follow come from ChEMBL document CHEMBL1122114.

The target of test [1] is T1, Dihydrofolate reductase (Mus musculus) (UniProt P00375).
T1 sequence (whole entry): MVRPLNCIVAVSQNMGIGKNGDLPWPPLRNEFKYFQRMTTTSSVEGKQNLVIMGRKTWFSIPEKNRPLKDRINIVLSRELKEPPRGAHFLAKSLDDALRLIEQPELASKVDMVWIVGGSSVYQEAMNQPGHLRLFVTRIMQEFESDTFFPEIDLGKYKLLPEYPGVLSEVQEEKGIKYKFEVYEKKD
Particulars: L1210.
Description: Concentration of inhibitor to decrease binding of [3H]MTX radioligand to Dihydrofolate reductase from L1210 cells by 50%.

For test [2], the target named is Dihydrofolate reductase (Lactobacillus casei) (UniProt P00381). The note with it: Lacticaseibacillus casei.
Sequence of Dihydrofolate reductase (Lactobacillus casei) (P00381 whole entry): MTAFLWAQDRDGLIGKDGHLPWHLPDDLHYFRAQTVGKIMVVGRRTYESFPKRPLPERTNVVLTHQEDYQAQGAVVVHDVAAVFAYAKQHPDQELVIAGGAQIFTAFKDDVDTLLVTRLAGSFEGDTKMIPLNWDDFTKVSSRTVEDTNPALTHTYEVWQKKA
Description: Tested for 50% reversible inhibition of Lactobacillus casei dihydrofolate reductase (spectrophotometric assay).
Test [3] has the same target. The note with it: Lacticaseibacillus casei. This is another data set of the same source.
Description: Concentration of inhibitor required to decrease binding of [3H]MTX radioligand to Lactobacillus casei dihydrofolate reductase by 50%.

`CN(Cc1cnc2nc(N)nc(N)c2n1)c1ccc(C(=O)NC(CCCCNC(=O)OCc2ccccc2)C(=O)O)cc1` (centres undefined): the results for the ID50 in test [1], in test [2] and in test [3] were 11 nM, 14 nM and 45 nM, respectively.
For `CN(Cc1cnc2nc(N)nc(N)c2n1)c1ccc(C(=O)NC(CCCCN)C(=O)O)cc1` (centres undefined) the same measures were 11 nM, 23 nM and 122 nM.
`CN(Cc1cnc2nc(N)nc(N)c2n1)c1ccc(C(=O)NC(CCCCNC(=O)CI)C(=O)O)cc1` (centres undefined): the figures for the ID50 in test [1], in test [2] and in test [3] were 9.8 nM, 4.5 nM and 31 nM, respectively.
